Read-outs that look alike come from different tables or passages of the source.
Assays:
rhinovirus [1] = conditions: Gualdoni et al. 2018; cited from earlier work
[2] = tested on: Human Bronchial Epithelial Cells (HBEpiC); assay: Cell viability (CellTiter 96 AQueous), short exposure; type: cell-based; conditions: 15 minutes to 6 hours exposure
Protocol: (§1) Human Bronchial Epithelial Cells (HBEpiC) were obtained from Innoprot (Cat no. P10557, batch no. 7475) and cultured in Bronchial Epithelial Cell Medium (Innoprot, Cat no. P60151) supplemented with 0.2% gentamicin (Gibco, Life Technologies, USA, Cat. no. 15710-049) under standard cell culture conditions (5% CO2, 16% O2, 37° C.). HBEpiC at passage 2, were plated in Bronchial Epithelial Cell Medium at 10.0 thousand cells per well of a 96-well plate and left for 48 hours in an incubator. The plates were coated with collagen (Collagen I-cell surface coating kit, Innoprot, Cat no. P8188) prior to cell seeding. 2-deoxy-D-glucose (Sigma-Aldrich; Cat no. D8375) was added to the cells for 15 min, 30 min, 1 h, 2 h and 6 h.
Cells were exposed to the compound at the following concentrations of 2-deoxy-D-glucose in medium as a solvent: 200 mM; 100 mM; 50 mM; 25 mM; 12.5 mM; 6.25 mM.
In order to assess cell viability, medium containing 2-deoxy-D-glucose was removed, the fresh medium was added to the cells and CellTiter 96® AQueous Solution Assay (Promega) was used in accordance with the manufacturer's instructions, 20 μl of reagent was added per 100 μl of cell culture medium and cells were incubated at 5% CO2, 16% O2, 37° C. Absorbance was measured at 490 nm. The results obtained 1 hour after addition of the CellTiter reagent were analyzed in GraphPadPrism 5.01. […]

[3] = tested on: primary human bronchial epithelial cells; assay: Toxicity observed in PBEC during the 48 h antiviral incubation; type: cell-based; conditions: 48 h incubation
Protocol: Day 2. Pre-treatment of PBEC cells in 48 wells plate with 2-DG prior to SARS-CoV-2 infection (2 h), and treatment with 2-DG for 48 h. SARS-CoV-2 was added at MOI 10-1 (MOI 0.1) and removed after 2 hours. Then, the cell culture was washed with PBS (3×0.5 mL) and 300 μL of medium with 2-DG from 50 mM to 0.39 mM, or medium with or without remdesivir for control, were added.

SARS-CoV-2 [4] = type: cell-based
[5] = very high tolerance; cited from earlier work
SARS-CoV-2 [6] = conditions: Bojkova et al. 2020; cited from earlier work
SARS-CoV-2 [7] = type: cell-based; conditions: Vero E6
[8] = tested on: Human Bronchial Epithelial Cells (HBEpiC); assay: Cell viability (CellTiter 96 AQueous), long exposure; type: cell-based; conditions: 48 h exposure (FIG. 5)
Protocol: as §1, with “passage 6,” for “passage 2,”, “at 9.0” for “at 10.0”, “for 48” for “for 15 min, 30 min, 1 h, 2 h and 6”
Cells were exposed to compounds at the following concentrations of 2-deoxy-D-glucose in medium as a solvent: 100 mM; 50 mM; 25 mM; 12.5 mM; 6.25 mM; 3.13 mM.
In order to asses cell viability, CellTiter 96® AQueous Solution Assay (Promega) was used in accordance with the manufacturer's instructions, 20 μl of reagent was added per 100 μl of cell culture medium and cells were incubated at 5% CO2, 16% O2, 37° C. Absorbance was measured at 490 nm. The results obtained 4 hours after addition of the CellTiter reagent were analyzed in GraphPadPrism 5.01. Data normalization and a nonlinear regression model were applied in order to determine the IC50.

SARS-CoV-2 [9] = type: cell-based; conditions: for TCID50/ml: Vero-E6, M.O.I 0.001
rhinovirus [10] = conditions: Gualdoni et al. 2018; cited from earlier work; remark: listed apart in the source
[11] = 2-DG uptake measurement in lung tissue lysates of mice treated by inhalation; type: in vivo; conditions: 7 days, 14 days
Protocol: The analysis involved six lung tissue sections of mice (both male and female) treated by inhalation with 2-DG at a concentration of 30 mM thrice a day for 24 hours, 7 days and two weeks. The tissues were weighed, suspended in 10 mM Tris-HCl lysis buffer (pH 8.0) and then subjected to homogenization with the use of homogenizer (MPW-302, Precision Mechanics). Each analyzed sample is described in table below:
The 2DG6P accumulation in cells was determined with the use of 2-Deoxyglucose (2-DG) Uptake Measurement Kit (Cat. No. CSR-OKP-PMG-K01TE; Cosmo Bio Co., LTD., Tokyo, Japan) according to the manufacturer's protocol.
1. Cell and tissue lysates were heat treated at 80° C. for 15 min and then centrifuged at 4° C., 15 000×g for 20 min.
2. The supernatants were transferred to new tubes and used as unknown samples for measurement method (point 5).
3. The 2DG6P standards were prepared by serial dilution of 1 mM 2DG6P in 1× Sample Diluent Buffer in the following ranges: 0; 0.3125; 0.625; 1.25; 2.5 and 5 μM.
4. 60 μL of Reagent Mix A (including NAD and low glucose-6-phosphate dehydrogenase (G6PDH)) were added to each well of 96-ell plate.
5. Then 2DG6P standard and unknown samples (20 μL) were added to each well and incubated for over 19 hours at room temperature.
6. […]
12. The optical density (OD) was read at 420 nm in every 2.5 min over a period of 30 min using a microplate reader preheated to 30° C.

SARS-CoV-2 Spike Protein = assay: Western blot analysis of Spike protein glycosylation in human bronchial epithelial cells (HBEpiC) transduced with Spike lentiviral vectors; type: cell-based

O=CC[C@@H](O)[C@H](O)[C@H](O)CO [Example 2-DG, 2-deoxy-D-glucose]
infection and inflammation in a mouse model (rhinovirus [1]): inhibited infection and inflammation
cytotoxic effects on epithelial cells [2]: lack of cytotoxic effects
toxicity [3]: No toxicity
concentration from which production of infectious SARS-CoV-2 particles decreases (SARS-CoV-2 [4]; PBEC, 2 h pretreatment, MOI 0.1, 48 h, TCID50): ≥ 0.78 mM
concentration above which effect is equivalent to the positive control remdesivir (SARS-CoV-2 [4]; PBEC, remdesivir 6 μM): above 0.78 mM
concentration from which production of infectious SARS-CoV-2 particles massively decreases (SARS-CoV-2 [4]; PBEC, treatment only conditions, MOI 0.1, 48 h, TCID50): ≥ 0.78 mM
SARS-CoV-2 virus production (SARS-CoV-2 [4]; primary human bronchial epithelial cells, 0.39 to 50 mM): dose dependent decrease
tolerated dose in clinical trials [5]: up to 63 mg per kg body weight and day
SARS-CoV-2 replication (SARS-CoV-2 [6]): inhibition
production of infectious SARS-CoV-2 particles (TCID50) (SARS-CoV-2 [7]; MOI 0.001, 0.39 to 50 mM, 24 h): strong decrease
effect on qPCR experiments (gene E copy numbers) compared with TCID50 (SARS-CoV-2 [7]; RT-qPCR): less pronounced
IC50 (cell viability) [8]: very high
production of infectious SARS-CoV-2 particles (TCID50) (SARS-CoV-2 [9]; Vero E6, 2-DG added 8 hours after infection): strong decrease
TCID50/ml (SARS-CoV-2 [9]; Post-treatment (8 h.p.i), 2-DG 0.19 mM): 1.47E+07 TCID50/ml
TCID50/ml (SARS-CoV-2 [9]; Post-treatment (8 h.p.i), 2-DG 0.56 mM): 3.16E+07 TCID50/ml
TCID50/ml (SARS-CoV-2 [9]; Post-treatment (8 h.p.i), 2-DG 1.67 mM): 3.16E+06 TCID50/ml
TCID50/ml (SARS-CoV-2 [9]; Post-treatment (8 h.p.i), 2-DG 5 mM): 3.16E+05 TCID50/ml
TCID50/ml (SARS-CoV-2 [9]; Post-treatment (8 h.p.i), 2-DG 15 mM): 3.16E+04 TCID50/ml
TCID50/ml (SARS-CoV-2 [9]; Post-treatment (8 h.p.i), 2-DG 45 mM): 1.47E+01 TCID50/ml
TCID50/ml (SARS-CoV-2 [9]; Treatment (0 h.p.i), 2-DG 0.19 mM): 6.81E+06 TCID50/ml
TCID50/ml (SARS-CoV-2 [9]; Treatment (0 h.p.i), 2-DG 0.56 mM): 3.16E+07 TCID50/ml
TCID50/ml (SARS-CoV-2 [9]; Treatment (0 h.p.i), 2-DG 1.67 mM): 1.47E+07 TCID50/ml
TCID50/ml (SARS-CoV-2 [9]; Treatment (0 h.p.i), 2-DG 5 mM): 1.47E+05 TCID50/ml
TCID50/ml (SARS-CoV-2 [9]; Treatment (0 h.p.i), 2-DG 15 mM): 3.16E+02 TCID50/ml
TCID50/ml (SARS-CoV-2 [9]; Treatment (0 h.p.i), 2-DG 45 mM): 3.16E+00 TCID50/ml
rhinovirus replication in vitro (rhinovirus [10]): decreasing rhinovirus replication
course of 2-DG accumulation over treatment time ([11]; inhalation 24 h): plateau effect
2-DG accumulation in the lungs ([11]; inhalation of 30 mM 2-DG thrice a day for 24 h, OD 420 nm (FIG. 10)): accumulated in the lungs
inhibition of spike glycosylation at 15 mM (SARS-CoV-2 Spike Protein; 15 mM, FIG. 2): total inhibition
glycosylation of spike protein from SARS-CoV-2 virus (SARS-CoV-2 Spike Protein; 25 mM or 15 mM 2-DG for 24 h, Western blot (FIG. 2)): inhibits glycosylation

CCC(CC)COC(=O)[C@H](C)N[P@](=O)(OC[C@H]1O[C@@](C#N)(c2ccc3c(N)ncnn23)[C@H](O)[C@@H]1O)Oc1ccccc1 [RMD, remdesivir]
TCID50/ml (SARS-CoV-2 [9]; Post-treatment (8 h.p.i), RMD 6 μM): 6.81E+03 TCID50/ml
TCID50/ml (SARS-CoV-2 [9]; Treatment (0 h.p.i), RMD 6 μM): 6.81E+00 TCID50/ml
